Reference: publication PMC8294009, “Genetically-encoded discovery of proteolytically stable bicyclic inhibitors for morphogen NODAL” (Chemical Science, 2021)
*1 amine or outer side, *2 acyl side, *3 side chain or, on linkers, in order; H or OH if unused. Where a SMILES comes first, the peptide text is derived from it. Bridges are numbered along the chain shown (N, C = ends). S(p-C6F4)2 = Fc1c(F)c([*:1])c(F)c(F)c1Sc1c(F)c(F)c([*:2])c(F)c1F; X1 = O=C(C=NOCCCCCCOc1cc(C[*:2])cc(C[*:3])c1)[*:1]; X2 = O=C(C=NOCc1cc(C[*:2])cc(C[*:3])c1)[*:1]; mXylylene = c1cc(C[*:1])cc(C[*:2])c1

Test system: not listed separately
Experiment: in vitro
Details: Streptomyces griseus, isolated enzyme pronase, pH 7.4
Experimental: (§1) In a 600 L Eppendorf tube, we combined 196 L PBS (pH 7.4), 2 L of corresponding peptide
(§2) solution (from 10 mM stock) and 2 L of 0.1 mg/mL PronaseTM. The mixture was vortexed and
(§3) incubated at 37 °C. At indicated time points, 10 L of the solution was sampled, quenched with
(§4) 190 L of 50% aq. CH3CN and maintained at 4 °C until analysis by LCMS.

remaining at 5 h, 100 µM | Compound
68 ± 14% | CC(C)C[C@@H]1NC(=O)[C@H](Cc2ccc(O)cc2)NC(=O)[C@@H]2CSCc3cc(cc(c3)OCCCCCCON=CC(=O)N[C@@H](Cc3c[nH]c4ccccc34)C(=O)N[C@@H](CC(=O)O)C(=O)N[C@@H](Cc3ccc(O)cc3)C(=O)N[C@@H](CCCNC(=N)N)C(=O)N[C@@H](CCC(=O)O)C(=O)N2)CSC[C@@H](C(N)=O)NC(=O)[C@H](CCC(=O)O)NC1=O [TSL-6-SWDYRECYLEC] (WDYRECYLEC-NH2; linker N-6-10 via X1)

Test system: rhNODAL-induced phosphorylation of SMAD2 in P19 cells
Experiment: Inhibition of pSMAD assay with P19 cells (western blot of p-SMAD2)
Type: cell-based
Details: control inhibitor, concentration not given, rhNODAL 100 ng mL^−1, 1 hour
Excerpt: 3.6. Processing of Illumina data
The Gzip compressed FASTQ files were downloaded from BaseSpace™ Sequence Hub. The files were converted into tables of DNA sequences and their counts per experiment. Briefly, FASTQ files were parsed based on unique multiplexing barcodes within the reads discarding any reads that contained a low-quality score. Mapping the forward (F) and reverse […] barcoding regions, mapping of F and R priming regions allowing no more than one base substitution each and F-R read alignment allowing no mismatches between F and R reads yielded DNA sequences located between the priming regions. The files with DNA reads, raw counts, and mapped peptide modifications were uploaded to http://48hd.cloud/ server. Each experiment has a unique alphanumeric name (e.g., 20181108-16TSooPA-YW) and unique static URL:
Un- http://48hd.cloud/file/23 https://48hd.cloud/file/2 https://48hd.cloud/file/2 […]
TSL-6 https://48hd.cloud/file/2 https://48hd.cloud/file/2 https://48hd.cloud/file/2 […]
Elution https://48hd.cloud/file/2 https://48hd.cloud/file/2 https://48hd.cloud/file/2 […]
Amplificati https://48hd.cloud/file/2 https://48hd.cloud/file/2 https://48hd.cloud/file/2 […]
3.7. General protocol for protein extraction
All samples in the protein extraction protocol were done on ice. […]

Compound | inhibition of rhNODAL-induced phosphorylation of SMAD2
NC(=O)c1ccc(-c2nc(-c3ccc4c(c3)OCO4)c(-c3ccccn3)[nH]2)cc1 [SB431542] | inhibited

Test system: not given
Experiment: not given
Details: crosslinker bond; DBMB

Compound | ring closure, isolated yield
H-SYCKRAHKNC-NH2 + DBMB | 32%
H-SQCKRAHAEC-NH2 + DBMB | 10%
H-STCQGECGGG-NH2 + DBMB | 19%
H-SYCKADC-NH2 + DBMB | 47%
H-SHDCYLEC-NH2 + DBMB | 27%
H-SPCKAGTGQC-NH2 + DBMB | 12%
H-SSWPARCLHQDLC-NH2 + DBMB | 46%
H-SYCKPFC-NH2 + DBMB | 62%
H-SHCDYYC-NH2 + DBMB | 47%
H-SPCKGRHHNC-NH2 + DBMB | 63%
H-SWDYRECYLEC-NH2 + DBMB | 12%
H-SICRFFCGGG-NH2 + DBMB | 46%
H-SFCDWYGC-NH2 + DBMB | 10%
H-SPCKGPSATC-NH2 + DBMB | 10%
H-SPCAKGMNYC-NH2 + DBMB | 25%
H-SHCVWWDC-NH2 + DBMB | 16%

Same assay, conditions: crosslinker bond; PFS

Compound | ring closure, isolated yield
H-STCQGECGGG-NH2 + PFS | 31%
H-SICRFFCGGG-NH2 + PFS | 40%

Same assay, conditions: crosslinker bond; TBMB

Compound | ring closure, isolated yield
Ac-CNTWNPWCPWDAPLCam-NH2 + TBMB | 38%
Ac-CSWPARCLHQDLC-NH2 + TBMB | 33%

Same assay, conditions: crosslinker bond; TSL-1

Compound | ring closure, isolated yield
H-SWDYRECYLEC-NH2 + TSL-1 | 54%
H-SYCKPFC-NH2 + TSL-1 | 41%
H-SYCKADC-NH2 + TSL-1 | 37%

Same assay, conditions: crosslinker bond; TSL-6

Compound | ring closure, isolated yield
H-SWDYRECYLEC-NH2 + TSL-6 | 42%
H-SYCPYSGTNC-NH2 + TSL-6 | 32%
H-SYCKRAHKNC-NH2 + TSL-6 | 14%

Test system: TYK-nu-NODAL cells
Experiment: not given
Type: cell-based
Details: human, 72 h, 10 µM
Experimental: 3.9. General protocol P19 Cell Culture
P19 Cell were obtained from ATCC cell bank and culture in Alpha Minimum Essential Medium with ribonucleotide and […] with 7.5% bovine calf serum and 2.5% fetal bovine serum at 37 °C with 5% CO2 supplementation.
3.10. Inhibition of pSMAD assay with P19 Cell […]
TYK-nu ovarian cancer cells were obtained from JCRB cell bank and cultured in Eagle’s minimal essential medium with 10 % fetal calf serum (Gibco/Thermo Fisher; Waltham, Massachusetts, USA) at 37 °C with 5% CO2 supplementation. To express the constitutive NODAL, a plasmid vector for human NODAL open reading frame (not including the stop codon) was cloned into pCMV6-Entry vector in frame with a tandem MYCDYK (FLAG) tag (Origene Cat. # RC211302). […]
Cells were seeded in three 96 wells plates with 600 cells/well or 6000 cells/well and grow in full media with G418 at 100 μg/mL O/N. The next day the media was changed to contain 19d peptide (10 µM, 1 µM and 0.1 µM) and without G418. Cells viability was measured every 24 hours with CellTiter-Glo® Luminescent Cell Viability Assay (Promega Cat. # G7572) over the course of 72

Compound | viability of TYK-nu-NODAL cells compared to untreated TYK-nu-NODAL cells
C[C@@H]1NC(=O)[C@H](CCCNC(=N)N)NC(=O)[C@H](CCCCN)NC(=O)[C@@H]2CSCc3cc(cc(c3)OCCCCCCON=CC(=O)N[C@@H](Cc3ccc(O)cc3)C(=O)N2)CSC[C@@H](C(N)=O)NC(=O)[C@H](CC(N)=O)NC(=O)[C@H](CCCCN)NC(=O)[C@H](Cc2c[nH]cn2)NC1=O [19b, TSL-[S]Y[C]KRAHKN[C]] (YCKRAHKNC-NH2; linker N-2-9 via X1) | 23%

Test system: Pronase™
Experiment: Proteolytic stability in Pronase
Details: 5 hours, 37 °C
Experimental: as §1, §2, §3, §4

Compound | stability in Pronase™ (in words)
CC[C@H](C)[C@H](NC(=O)[C@@H](N)CO)C(=O)N[C@H]1CSc2c(F)c(F)c(c(F)c2F)Sc2c(F)c(F)c(c(F)c2F)SC[C@@H](C(=O)NCC(=O)NCC(=O)NCC(N)=O)NC(=O)[C@H](Cc2ccccc2)NC(=O)[C@H](Cc2ccccc2)NC(=O)[C@H](CCCNC(=N)N)NC1=O [PFS-SICRFFCGGG] (H-SICRFFCGGG-NH2; linker 3-7 via S(p-C6F4)2) | lower stability than bicycle TSL-3-SICRFFCGGG

Test system: not listed separately
Experiment: Proteolytic stability in Pronase
Details: Streptomyces griseus, Pronase (protease mixture) in PBS, pH 7.4
Experimental: as §1, §2, §3, §4

remaining at 5 h, 100 µM | Compound
< 1% | CC(C)C[C@@H]1NC(=O)[C@H](Cc2ccc(O)cc2)NC(=O)[C@@H](NC(=O)[C@H](CC(=O)O)NC(=O)[C@H](Cc2c[nH]cn2)NC(=O)[C@@H](N)CO)CSSC[C@@H](C(N)=O)NC(=O)[C@H](CCC(=O)O)NC1=O [6a] (H-SHDCYLEC-NH2; disulfide 4-8)
< 1% | CC(C)C[C@@H]1NC(=O)[C@H](Cc2ccc(O)cc2)NC(=O)[C@@H](NC(=O)[C@H](CC(=O)O)NC(=O)[C@H](Cc2c[nH]cn2)NC(=O)[C@@H](N)CO)CSCc2cccc(c2)CSC[C@@H](C(N)=O)NC(=O)[C@H](CCC(=O)O)NC1=O [6g] (H-SHDCYLEC-NH2; linker 4-8 via mXylylene)
82 ± 13% | CC(C)C[C@@H]1NC(=O)[C@H](Cc2ccc(O)cc2)NC(=O)[C@@H]2CSCc3cc(cc(c3)CSC[C@@H](C(N)=O)NC(=O)[C@H](CCC(=O)O)NC1=O)CON=CC(=O)N[C@@H](Cc1c[nH]c3ccccc13)C(=O)N[C@@H](CC(=O)O)C(=O)N[C@@H](Cc1ccc(O)cc1)C(=O)N[C@@H](CCCNC(=N)N)C(=O)N[C@@H](CCC(=O)O)C(=O)N2 [TSL-1-SWDYRECYLEC] (WDYRECYLEC-NH2; linker N-6-10 via X2)
83 ± 6.9% | CC(C)C[C@@H]1NC(=O)[C@H](Cc2ccc(O)cc2)NC(=O)[C@@H]2CSCc3cc(cc(c3)CSC[C@@H](C(N)=O)NC(=O)[C@H](CCC(=O)O)NC1=O)CON=CC(=O)N[C@@H](Cc1c[nH]cn1)C(=O)N[C@@H](CC(=O)O)C(=O)N2 [6c] (HDCYLEC-NH2; linker N-3-7 via X2)

Test system: not listed separately
Experiment: in vitro
Type: in vitro ADME
Details: mouse, serum
Experimental: 4. Proteolytic Stability Methods
4.1. Protocol for measurement of proteolytic stability in cell assay: […]
precipitate any proteins.
4.2. Protocol for measurement of proteolytic stability in PronaseTM :
The mixture was vortexed and […]
peptide solution (from 10 mM stock). The mixture was vortexed and incubated at 37 °C. At […]
precipitate the serum protein.

remaining at 72 h | Compound
53% | C[C@@H]1NC(=O)[C@H](CCCNC(=N)N)NC(=O)[C@H](CCCCN)NC(=O)[C@@H]2CSCc3cc(cc(c3)OCCCCCCON=CC(=O)N[C@@H](Cc3ccc(O)cc3)C(=O)N2)CSC[C@@H](C(N)=O)NC(=O)[C@H](CC(N)=O)NC(=O)[C@H](CCCCN)NC(=O)[C@H](Cc2c[nH]cn2)NC1=O [19b, TSL-[S]Y[C]KRAHKN[C]] (YCKRAHKNC-NH2; linker N-2-9 via X1)
